# Where a name gives a salt, the structure may show the parent alone. Read-outs that look alike come from different tables or passages of the source.
# Legend:
# human GlyT1c = human GlyT1c (Homo sapiens (Human), UniProt P48067); assay: [3H]-Glycine uptake into recombinant CHO cells expressing human GlyT1; format: cell-based
# Protocol: 1. [^3H]-Glycine uptake into recombinant CHO cells expressing human GlyT1: Human GlyT1c expressing recombinant hGlyT1c—5_CHO cells were plated at 20,000 cells per well in 96 well Cytostar-T scintillation microplates (Amersham Biosciences) and cultured to sub-confluency for 24 h. […] 80 μl HBSS buffer were added, followed by 10 μl inhibitor or vehicle (10% DMSO) and 10 μl [^3H]-glycine (TRK71, Amersham Biosciences) to a final concentration of 200 nM for initiation of glycine uptake. The plates were placed in a Wallac Microbeta (PerkinElmer) and continuously counted by solid phase scintillation spectrometry during up to 3 hours. Nonspecific uptake was determined in the presence of 10 μM Org24598.
# human GlyT1c transporter = human GlyT1c transporter (Homo sapiens (Human), UniProt P48067); assay: Radioligand binding assay using recombinant CHO cell membranes expressing human GlyT1; conditions: read-out: radioligand binding Kiapp
# human GlyT1c transporter, sequence (P48067 whole entry): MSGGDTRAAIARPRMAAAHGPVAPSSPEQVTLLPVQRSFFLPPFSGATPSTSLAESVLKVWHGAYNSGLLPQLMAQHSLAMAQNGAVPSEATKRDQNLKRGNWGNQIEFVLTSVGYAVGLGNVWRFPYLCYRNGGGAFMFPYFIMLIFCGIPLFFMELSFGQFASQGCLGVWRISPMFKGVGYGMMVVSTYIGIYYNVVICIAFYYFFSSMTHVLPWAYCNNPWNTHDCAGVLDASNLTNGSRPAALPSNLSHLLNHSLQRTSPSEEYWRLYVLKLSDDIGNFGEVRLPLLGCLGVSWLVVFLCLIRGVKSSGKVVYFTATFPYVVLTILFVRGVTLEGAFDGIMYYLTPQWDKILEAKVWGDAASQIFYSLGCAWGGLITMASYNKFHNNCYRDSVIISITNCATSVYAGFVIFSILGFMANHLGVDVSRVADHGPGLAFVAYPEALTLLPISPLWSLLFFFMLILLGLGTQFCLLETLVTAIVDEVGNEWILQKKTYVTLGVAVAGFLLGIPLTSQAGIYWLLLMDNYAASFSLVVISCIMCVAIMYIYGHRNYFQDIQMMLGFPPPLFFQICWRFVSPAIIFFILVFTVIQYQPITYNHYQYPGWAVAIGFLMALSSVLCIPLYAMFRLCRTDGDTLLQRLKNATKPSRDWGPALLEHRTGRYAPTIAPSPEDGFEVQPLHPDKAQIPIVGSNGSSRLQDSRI
# Source text: 2. Radioligand binding assays using recombinant CHO cell membranes expressing human GlyT1: […]
# [1] = hGlyT1c_5_CHO cells, 200 nM [3H]-glycine
# [2] = human GlyT1c-expressing CHO cell membranes
# human GlyT1c, sequence (P48067 whole entry): as above
SMILES,IC50 (human GlyT1c; [1]) [µM],Ki (human GlyT1c transporter; [2]) [µM],IC50 (human GlyT1c) [µM],Ki (human GlyT1c transporter) [µM]
"CCOC(=O)NC1CCc2ccc(OCCNS(=O)(=O)c3cccnc3)cc2C1Cc1ccc(Cl)c(Cl)c1 (stereo not drawn) [Example 10, {1-(3,4-Dichloro-benzyl)-7-[2-(pyridine-3-sulfonylamino)-ethoxy]-1,2,3,4-tetrahydronaphthalen-2-yl}-carbamic acid ethyl ester]",≤ 100,≤ 10,–,–
"CCOC(=O)NC1CCc2ccc(OCCNS(=O)(=O)c3cn(C)cn3)cc2C1Cc1cccc(Cl)c1 (stereo not drawn) [Example 80, {1-(3-Chloro-benzyl)-7-[2-(1-methyl-1H-imidazole-4-sulfonylamino)-ethoxy]-1,2,3,4-tetrahydro-naphthalen-2-yl}-carbamic acid ethyl ester]",≤ 1,≤ 1,–,–
"NC1CCc2ccc(OCCNS(=O)(=O)c3cccs3)cc2C1Cc1ccc(Cl)cc1Cl (stereo not drawn) [Example 72, Thiophene-2-sulfonic acid {2-[7-amino-8-(2,4-dichloro-benzyl)-5,6,7,8-tetrahydronaphthalen-2-yloxy]-ethyl}-amide hydrochloride]",≤ 10,≤ 10,–,–
"CCOC(=O)NC1CCc2ccc(OCCNS(=O)(=O)c3cccs3)cc2C1Cc1ccc(Cl)cc1Cl (stereo not drawn) [Example 63, {1-(2,4-Dichloro-benzyl)-7-[2-(thiophene-2-sulfonylamino)-ethoxy]-1,2,3,4-tetrahydronaphthalen-2-yl}-carbamic acid ethyl ester]",≥ 100,≤ 10,–,–
"CCS(=O)(=O)NCCOc1ccc2c(c1)C(Cc1cccc(Cl)c1)C(N)CC2 (stereo not drawn) [Example 70, Ethanesulfonic acid {2-[7-amino-8-(3-chloro-benzyl)-5,6,7,8-tetrahydro-naphthalen-2-yloxy]-ethyl}-amide hydrochloride]",–,–,≤ 1,≤ 0.1
"Cn1cc(S(=O)(=O)NCCOc2ccc3c(c2)C(Cc2ccc(Cl)cc2Cl)C(N)CC3)cn1 (stereo not drawn) [Example 71, 1-Methyl-1H-pyrazole-4-sulfonic acid {2-[7-amino-8-(2,4-dichloro-benzyl)-5,6,7,8-tetrahydro-naphthalen-2-yloxy]-ethyl}-amide hydrochloride]",≤ 0.1,≤ 0.01,–,–
"NC1CCc2ccc(OC(F)F)cc2C1Cc1ccc(Cl)cc1 (stereo not drawn) [Example 36, 1-(4-chlorobenzyl)-7-(difluoromethoxy)-1,2,3,4-tetrahydronaphthalen-2-amine hydrochloride]",≤ 10,≤ 100,–,–
"NC1CCc2ccc(CNS(=O)(=O)CCCF)cc2C1Cc1ccc(Cl)c(Cl)c1 (stereo not drawn) [Example 41, N-{[7-Amino-8-(3,4-dichlorobenzyl)-5,6,7,8-tetrahydronaphthalen-2-yl]methyl}-3-fluoropropane-1-sulfonamide hydrochloride]",≤ 100,≤ 10,–,–
"CC(C)(C)OC(=O)NC1CCc2ccc(CN)cc2C1Cc1ccc(Cl)c(Cl)c1 (stereo not drawn) [Example 38, tert-Butyl[7-(aminomethyl)-1-(3,4-dichlorobenzyl)-1,2,3,4-tetrahydronaphthalen-2-yl]carbamate]",≤ 100,≤ 100,–,–
"CCOC(=O)NC1CCc2ccc(OCCNS(=O)(=O)c3cnn(C)c3)cc2C1Cc1ccc(Cl)cc1Cl (stereo not drawn) [Example 62, {1-(2,4-Dichloro-benzyl)-7-[2-(1-methyl-1H-pyrazole-4-sulfonylamino)-ethoxy]-1,2,3,4-tetrahydro-naphthalen-2-yl}-carbamic acid ethyl ester]",≤ 1000,≤ 10,–,–
"CCOC(=O)NC1CCc2ccc(OCCNS(=O)(=O)c3cnn(C)c3)cc2C1Cc1ccc(Cl)c(Cl)c1 (stereo not drawn) [Example 9, {1-(3,4-Dichloro-benzyl)-7-[2-(1-methyl-1H-pyrazole-4-sulfonylamino)-ethoxy]-1,2,3,4-tetrahydro-naphthalen-2-yl}-carbamic acid ethyl ester]",≤ 1,≤ 1,–,–
"CCCS(=O)(=O)NCCOc1ccc2c(c1)C(Cc1ccc(Cl)cc1Cl)C(NC(=O)OCC)CC2 (stereo not drawn) [Example 74, {1-(2,4-Dichloro-benzyl)-7-[2-(propane-1-sulfonylamino)-ethoxy]-1,2,3,4-tetrahydronaphthalen-2-yl}-carbamic acid ethyl ester]",≤ 100,≥ 10,–,–
